In ChEMBL document CHEMBL1144345, “Discovery of cell-permeable non-peptide inhibitors of beta-secretase by high-throughput docking and continuum electrostatics calculations” (J Med Chem, 2005):

How the values were obtained:
[1] = Cytotoxic concentration against human and other tumor cell lines; format: functional
[2] = Effective concentration against Abeta(sw) peptide; format: functional
[3] = target: Beta-secretase (BACE) (Homo sapiens, UniProt Q9Y5Z0+P56817); assay: Beta-secretase inhibitory activity as inhibition of secreted alkaline phosphatase in HEK293 cells expressing SEAP-APP fusion protein; format: functional, cell-based

| Compound | CC50 [1] [µM] | EC50 [2] [µM] | EC50 [3] [µM] |
| --- | --- | --- | --- |
| CCSc1nsc(NC(=O)Nc2cccc(C(C)=O)c2)n1 | 23.3 | 2.6 | – |
| CCOCCCNC(=O)c1cc(NC(=O)Nc2cccc(Cl)c2)ccc1N(C)C | 11.1 | 2.6 | – |
| COCCCNC(=O)c1cc(NC(=O)Nc2cc(C(F)(F)F)cc(C(F)(F)F)c2)ccc1N(C)C | 24.6 | 3.2 | 27 |
| CN(C)c1ccc(NC(=O)Nc2cc(C(F)(F)F)cc(C(F)(F)F)c2)cc1C(=O)NCCCN1CCOCC1 | 12.5 | 3 | – |
